Like-named read-outs stand apart in the source and are kept apart here. Numbered stars: 1 amine (or outer) side, 2 acyl side, 3 side chain; on linkers, the order of the positions; unused ones are H or OH. Bridge positions count the residues as written; N and C are the ends. Square brackets hold non-standard residues; d marks the D form. Peptide text beside a SMILES is read from it. Trp(βS-Me,7-OMe) = COc1cccc2c([C@H](C)[C@H](N)C(=O)O)c[nH]c12; Trp(7-Cl) = N[C@@H](Cc1c[nH]c2c(Cl)cccc12)C(=O)O; Phe(4-CONH2) = NC(=O)c1ccc(C[C@H](N)C(=O)O)cc1; Phe(4-COOH) = N[C@@H](Cc1ccc(C(=O)O)cc1)C(=O)O; X25 = O=C(O)c1ccc(C[C@H](N[*:1])C(=O)[*:2])cn1; Trp(7-aza) = N[C@@H](Cc1c[nH]c2ncccc12)C(=O)O; X18 = O=C([C@@H]1C=C[C@H](N[*:1])C1)[*:2]; Pip(5R-OH) = O=C(O)[C@@H]1CC[C@@H](O)CN1; X1 = O=C([C@@H]1CC[C@H](N[*:1])C1)[*:2]; Pip(4-aza) = O=C(O)[C@@H]1CNCCN1; hPhe = N[C@@H](CCc1ccccc1)C(=O)O; 4Pal = N[C@@H](Cc1ccncc1)C(=O)O; NMeE = CN[C@@H](CCC(=O)O)C(=O)O; dHyp = O=C(O)[C@H]1C[C@H](O)CN1; Lys(Me) = CNCCCC[C@H](N)C(=O)O; αMeS = C[C@](N)(CO)C(=O)O; NMeA = CN[C@@H](C)C(=O)O; Nle = CCCC[C@H](N)C(=O)O; Sar = CNCC(=O)O
Columns and labels:
[1] = target: T1, human TNFR2 ECD protein (Homo sapiens, UniProt P20333); assay: SPR off-target binding (selectivity) to human TNFR2 ECD
T1 construct: HRV 3C protease cleavage site (C); 6His (C, cleaved yes); made in house; host or cells: Sf21 insect cells (baculovirus), secreted
T1 sequence (P20333 23-257): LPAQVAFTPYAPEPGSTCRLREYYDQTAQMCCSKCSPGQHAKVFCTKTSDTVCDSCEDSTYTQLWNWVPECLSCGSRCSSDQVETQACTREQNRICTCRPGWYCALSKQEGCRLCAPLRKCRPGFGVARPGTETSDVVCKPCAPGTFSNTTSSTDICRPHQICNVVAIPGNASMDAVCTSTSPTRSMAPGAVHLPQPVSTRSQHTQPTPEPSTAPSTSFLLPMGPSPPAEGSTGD
Protocol: (§1) B. Procedure for Binding Affinity and Selectivity measured by SPR
(§2) Affinity and selectivity for hTNFR1 and TNFR2 was determined using SPR. Human TNFR1 or TNFR2 genes (extracellular domain only) were synthesized with a C-terminal Avi-tag, HRV 3C protease cleavage site followed by a 6His-tag for affinity purification. The final gene product was cloned into pBAC™-1 vector (Millipore Sigma) for expression testing in insect cells. Constructs were transfected into Sf21 cells for baculovirus generation followed by protein expression analysis in Sf21 and Tni cell lines. Large scale expression in Sf21 cells was performed using baculovirus infected insect cells (BIICs) infected at a MOI=2.0 grown for 72 h. Target proteins secreted into the media were harvested via centrifugation and concentrated using diafiltration. TNFR was purified by immobilized metal ion affinity chromatography (IMAC) using a Ni-Sepharose HisTrap™ column (Cytiva™). Isolated TNFR had His tag removed using HRV 3C protease followed by additional purification using Ni-NTA chromatography. Biotinylation was performed on Ni-NTA flow-through fractions concentrated to 45 μM and treated with BirA ligase (1:100, μg/μg ratio) in 50 mM Tris pH 7.5, 150 mM NaCl, 50 μM biotin, 10 mM magnesium acetate, 10 mM ATP at 4° C. for 20 h. Final purification of biotin-TNFR and buffer exchange into 20 mM HEPES pH 7.5, 150 mM NaCl was performed using a HiLoad® Superdex® 200 26/60 column (Cytiva™). Highly purified protein was aliquoted and stored at −80° C.
(§3) The SPR assay uses a Cytiva™ 8K or 8K+ biosensor instrument to measure the kinetics of peptide analytes binding to captured human TNFR1 extracellular domain (ECD) protein; peptide analytes are also evaluated for any off-target binding to human TNFR2 ECD protein in parallel. Recombinant human TNFR1 ECD and human TNFR2 ECD proteins, biotinylated via engineered C-terminal avi-tags, are immobilized to a regenerable streptavidin biosensor chip surface (Cytiva™ Biotin CAPture kit, Series S; cat. #28920234). Peptide analytes binding to immobilized human TNFR1 ECD protein and their subsequent dissociation are conducted in a buffer of 10 mM HEPES pH 7.4, 150 mM NaCl, 3 mM EDTA, 0.05% P20,2% DMSO under laminar flow conditions and measured in response units (RU), which are directly proportional to the accumulated mass on the surface of the biosensor chip; the biosensor chip surface is regenerated via Cytiva™ proprietary methods between the evaluation of each peptide analyte. […] The SPR assay determines the association and dissociation rate constants, kon and koff, for each peptide analyte and, from these values, calculates the binding affinity, […] reported in Table 2.

[2] = target: T2, human TNFR1 extracellular domain (ECD) protein (Homo sapiens, UniProt P19438); assay: SPR binding affinity to captured human TNFR1 ECD
T2 construct: HRV 3C protease cleavage site (C); 6His (C, cleaved yes); made in house; host or cells: Sf21 insect cells (baculovirus), secreted
T2 sequence (P19438 30-211): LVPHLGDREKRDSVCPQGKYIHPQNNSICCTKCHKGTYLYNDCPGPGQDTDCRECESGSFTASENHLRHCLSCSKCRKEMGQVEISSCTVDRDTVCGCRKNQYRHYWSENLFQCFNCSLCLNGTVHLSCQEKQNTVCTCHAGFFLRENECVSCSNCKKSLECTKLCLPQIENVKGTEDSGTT
Protocol: as §1, §2, §3

[3] = target: T3, TNFα-induced NF-κB signal transduction pathway (TNFR1 signaling) in THP-1 cells (Homo sapiens, UniProt P19438); assay: THP-1 Lucia NF-κB reporter cell assay, inhibition of TNFα-induced NF-κB signaling; format: cell-based; details: THP-1 NF-κB Lucia reporter cells, 10 ng/mL TNFα, 16-18 h, secreted luciferase; read-out: THP-1 IC50
T3 sequence (P19438 30-455): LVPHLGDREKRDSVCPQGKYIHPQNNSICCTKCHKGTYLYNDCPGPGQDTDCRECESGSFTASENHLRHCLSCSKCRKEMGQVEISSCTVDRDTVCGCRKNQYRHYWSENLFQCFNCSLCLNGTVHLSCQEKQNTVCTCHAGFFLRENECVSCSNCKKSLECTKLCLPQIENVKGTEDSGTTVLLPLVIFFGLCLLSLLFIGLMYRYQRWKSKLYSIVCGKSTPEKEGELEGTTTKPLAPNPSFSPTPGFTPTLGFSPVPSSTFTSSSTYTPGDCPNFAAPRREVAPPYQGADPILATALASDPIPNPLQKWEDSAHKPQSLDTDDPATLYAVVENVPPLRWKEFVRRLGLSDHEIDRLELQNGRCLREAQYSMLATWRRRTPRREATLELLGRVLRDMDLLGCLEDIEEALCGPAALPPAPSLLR
In short: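 THP-1 Lucia NF-κB cells, 20k/well, no selection antibiotics; peptide pre-inc 1 h 37 °C; + recombinant human TNFα 10 ng/mL final; o.n.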

Compound | Kd [1] [nM] | Kd [2] [nM] | IC50 [3] [nM] | Kd ([1]; biotinylated human TNFR2 ECD on streptavidin chip, read-out: SPR hTNFR2 KD) [nM] | Kd ([2]; biotinylated human TNFR1 ECD on streptavidin chip, from kon and koff, read-out: SPR hTNFR1 KD) [nM]
CCCC[C@@H]1NC(=O)[C@@H]2CC[C@@H](C2)NC(=O)[C@H]([C@@H](C)c2c[nH]c3c(OC)cccc23)NC(=O)CN(C)C(=O)[C@H](Cc2ccc(C(=O)O)cc2)NC(=O)[C@H](Cc2ccc(C(N)=O)cc2)NC(=O)[C@](C)(CO)NC(=O)[C@H](Cc2c[nH]c3c(Cl)cccc23)NC(=O)[C@H](Cc2ccc(C(=O)O)nc2)NC(=O)[C@H](CC(N)=O)NC(=O)[C@H]2C[C@H](O)CN2C(=O)[C@H](Cc2c[nH]c3ncccc23)NC(=O)[C@@H]2CC[C@@H](O)CN2C(=O)[C@H](Cc2ccncc2)NC1=O [SEQ ID NO. 57] (cyclo([4Pal][Pip(5R-OH)][Trp(7-aza)][dHyp]N[X25][Trp(7-Cl)][αMeS][Phe(4-CONH2)][Phe(4-COOH)][Sar][Trp(βS-Me,7-OMe)][X1][Nle])) | > 1000 | 0.09 | 0.8 |  | 
CCCC[C@@H]1NC(=O)CSC[C@@H](C(N)=O)NC(=O)[C@H]([C@@H](C)c2c[nH]c3c(OC)cccc23)NC(=O)CN(C)C(=O)[C@H](Cc2ccc(O)cc2)NC(=O)[C@H](Cc2ccc(C(=O)O)cc2)NC(=O)[C@](C)(CO)NC(=O)[C@H](Cc2c[nH]c3c(Cl)cccc23)NC(=O)[C@H](Cc2ccncc2)NC(=O)[C@H](CC(N)=O)NC(=O)[C@H](CCC(=O)O)N(C)C(=O)[C@H](Cc2c[nH]c3ncccc23)NC(=O)[C@@H]2CNCCN2C(=O)[C@H](Cc2ccncc2)NC1=O [SEQ ID NO. 68] ({CH2CO}-[Nle][4Pal][Pip(4-aza)][Trp(7-aza)][NMeE]N[4Pal][Trp(7-Cl)][αMeS][Phe(4-COOH)]Y[Sar][Trp(βS-Me,7-OMe)]C-NH2; thioether N-14) |  |  | 3 | > 1000 | 0.55
C[C@H]1C(=O)N[C@@H](CC(N)=O)C(=O)N[C@@H](Cc2ccncc2)C(=O)N[C@@H](Cc2c[nH]c3ccccc23)C(=O)N[C@@](C)(CO)C(=O)N[C@@H](Cc2ccc(C(=O)O)cc2)C(=O)N[C@@H](Cc2ccc(O)cc2)C(=O)N(C)CC(=O)N[C@@H](Cc2c[nH]c3ccccc23)C(=O)N[C@H]2C=C[C@H](C2)C(=O)N[C@@H](CCc2ccccc2)C(=O)N[C@@H](Cc2ccncc2)C(=O)N[C@@H](CO)C(=O)N[C@@H](Cc2c[nH]c3ccccc23)C(=O)N1C [SEQ ID NO. 73] (cyclo([4Pal]SW[NMeA]N[4Pal]W[αMeS][Phe(4-COOH)]Y[Sar]W[X18][hPhe])) | > 1000 | 0.9 | 5.8 |  | 
CNCCCC[C@@H]1NC(=O)[C@@H]2CC[C@@H](C2)NC(=O)[C@H]([C@@H](C)c2c[nH]c3c(OC)cccc23)NC(=O)CN(C)C(=O)[C@H](Cc2ccc(O)cc2)NC(=O)[C@H](Cc2ccc(C(N)=O)cc2)NC(=O)[C@](C)(CO)NC(=O)[C@H](Cc2c[nH]c3c(Cl)cccc23)NC(=O)[C@H](Cc2ccncc2)NC(=O)[C@H](CC(N)=O)NC(=O)[C@H](CCC(=O)O)N(C)C(=O)[C@H](Cc2c[nH]c3ccccc23)NC(=O)[C@@H]2CC[C@@H](O)CN2C(=O)[C@H](Cc2ccncc2)NC1=O [SEQ ID NO. 86] (cyclo([4Pal][Trp(7-Cl)][αMeS][Phe(4-CONH2)]Y[Sar][Trp(βS-Me,7-OMe)][X1][Lys(Me)][4Pal][Pip(5R-OH)]W[NMeE]N)) | > 1000 | 0.08 | 0.5 |  | 

From patent US20240287138A1, “CYCLIC PEPTIDES FOR INHIBITING TNF RECEPTOR 1 ACTIVITY” (Merck Sharp & Dohme LLC, priority 2023, published 2024)
